From the supplement of paper PMC4628005

Legend:
Conditions in all cases: drug exposure time: 96 h
Erlotinib = compound: C#Cc1cccc(Nc2ncnc3cc(OCCOC)c(OCCOC)cc23)c1 [Erlotinib]
Experimental: (§1)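 Breast cancer cell lines were grown in RPMI 1640 with 10% FBS on collagen I-coated 96-well plates and treated for 96 h (from 24 h after seeding) with 12 dilutions per drug, in triplicate. Growth was read by sulforhodamine B total-protein staining (absorbance 570 nm) relative to diluent control, and IC50 was calculated. The top dose was 1e-5 M for most drugs; Bortezomib went to 2e-5 M and Sirolimus and 17-AAG to 2e-6 M[…].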

Docetaxel = compound: CC(=O)O[C@@]12CO[C@@H]1C[C@H](O)[C@@]1(C)C(=O)[C@H](O)C3=C(C)[C@@H](OC(=O)[C@H](O)[C@@H](NC(=O)OC(C)(C)C)c4ccccc4)C[C@@](O)([C@@H](OC(=O)c4ccccc4)[C@H]21)C3(C)C [Docetaxel]
Experimental: as §1

Paclitaxel = compound: CC(=O)O[C@H]1C(=O)[C@@]2(C)[C@H]([C@H](OC(=O)c3ccccc3)[C@]3(O)C[C@H](OC(=O)[C@H](O)[C@@H](NC(=O)c4ccccc4)c4ccccc4)C(C)=C1C3(C)C)[C@]1(OC(C)=O)CO[C@@H]1C[C@@H]2O [Paclitaxel]
Experimental: as §1

MI-219 = compound: CC(C)(C)C[C@H]1N[C@@H](C(=O)NCC[C@H](O)CO)[C@H](c2cccc(Cl)c2)[C@@]12C(=O)Nc1cc(Cl)c(F)cc12 [MI-219]
Experimental: as §1

Tamoxifen = compound: CC/C(=C(\c1ccccc1)c1ccc(OCCN(C)C)cc1)c1ccccc1 [Tamoxifen]
Experimental: as §1

Sunitinib = compound: CCN(CC)CCNC(=O)c1c(C)[nH]c(/C=C2\C(=O)Nc3ccc(F)cc32)c1C [Sunitinib]
Experimental: as §1

Methotrexate = compound: CN(Cc1cnc2nc(N)nc(N)c2n1)c1ccc(C(=O)N[C@@H](CCC(=O)O)C(=O)O)cc1 [Methotrexate]
Experimental: as §1

Sorafenib = compound: CNC(=O)c1cc(Oc2ccc(NC(=O)Nc3ccc(Cl)c(C(F)(F)F)c3)cc2)ccn1 [Sorafenib]
Experimental: as §1

Vandetanib = compound: COc1cc2/c(=N/c3ccc(Br)cc3F)nc[nH]c2cc1OCC1CCN(C)CC1 [Vandetanib]
Experimental: as §1

Gefitinib = compound: COc1cc2ncnc(Nc3ccc(F)c(Cl)c3)c2cc1OCCCN1CCOCC1 [Gefitinib]
Experimental: as §1

Nutlin-3 = compound: COc1ccc(C2=N[C@@H](c3ccc(Cl)cc3)[C@@H](c3ccc(Cl)cc3)N2C(=O)N2CCNC(=O)C2)c(OC(C)C)c1 [Nutlin-3]
Experimental: as §1

Doxorubicin = compound: COc1cccc2c1C(=O)c1c(O)c3c(c(O)c1C2=O)C[C@@](O)(C(=O)CO)C[C@@H]3O[C@H]1C[C@H](N)[C@H](O)[C@H](C)O1 [Doxorubicin]
Experimental: as §1

Lapatinib = compound: CS(=O)(=O)CCNCc1ccc(-c2ccc3ncnc(Nc4ccc(OCc5cccc(F)c5)c(Cl)c4)c3c2)o1 [Lapatinib]
Experimental: as §1

Panobinostat = compound: Cc1[nH]c2ccccc2c1CCNCc1ccc(/C=C/C(=O)NO)cc1 [Panobinostat]
Experimental: as §1

Brivanib = compound: Cc1cc2c(F)c(Oc3ncnn4cc(OC[C@@H](C)O)c(C)c34)ccc2[nH]1 [Brivanib]
Experimental: as §1

Dasatinib = compound: Cc1nc(Nc2ncc(C(=O)Nc3c(C)cccc3Cl)s2)cc(N2CCN(CCO)CC2)n1 [Dasatinib]
Experimental: as §1

Quisinostat = compound: Cn1cc(CNCC2CCN(c3ncc(C(=O)NO)cn3)CC2)c2ccccc21 [Quisinostat]
Experimental: as §1

Tipifarnib = compound: Cn1cncc1[C@@](N)(c1ccc(Cl)cc1)c1ccc2c(c1)c(-c1cccc(Cl)c1)cc(=O)n2C [Tipifarnib]
Experimental: as §1

Cisplatin = compound: N.N.[Cl][Pt][Cl] [Cisplatin]
Experimental: as §1

Azacitidine = compound: Nc1ncn([C@@H]2O[C@H](CO)[C@@H](O)[C@H]2O)c(=O)n1 [Azacitidine]
Experimental: as §1

Decitabine = compound: Nc1ncn([C@H]2C[C@H](O)[C@@H](CO)O2)c(=O)n1 [Decitabine]
Experimental: as §1

Belinostat = compound: O=C(/C=C/c1cccc(S(=O)(=O)Nc2ccccc2)c1)NO [Belinostat]
Experimental: as §1

Vorinostat = compound: O=C(CCCCCCC(=O)Nc1ccccc1)NO [Vorinostat]
Experimental: as §1

ARQ197 = compound: O=C1NC(=O)[C@@H](c2cn3c4c(cccc24)CCC3)[C@@H]1c1c[nH]c2ccccc12 [ARQ197]
Experimental: as §1

Mitoxantrone = compound: O=C1c2c(O)ccc(O)c2C(=O)c2c(NCCNCCO)ccc(NCCNCCO)c21 [Mitoxantrone]
Experimental: as §1

5-Fluorouracil = compound: O=c1[nH]cc(F)c(=O)[nH]1 [5-Fluorouracil]
Experimental: as §1

Serdemetan = compound: c1ccc2c(CCNc3ccc(Nc4ccncc4)cc3)c[nH]c2c1 [Serdemetan]
Experimental: as §1

17-AAG = compound: C=CCNC1=C2C[C@@H](C)C[C@H](OC)[C@H](O)[C@@H](C)/C=C(\C)[C@H](OC(N)=O)[C@@H](OC)/C=C\C=C(/C)C(=O)NC(=CC1=O)C2=O [17-AAG]
Experimental: (§2)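 Same SRB 96 h IC50 screen on breast cancer cell lines (RPMI 1640 + 10% FBS, collagen I-coated 96-well plates, triplicates, 12 dilutions), for drugs with a different dose range: Bortezomib up to 2e-5 M; Sirolimus and 17-AAG up to 2e-6 M. Sirolimus values at the 2e-6 M top dose are censored.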

Bortezomib = compound: CC(C)C[C@H](NC(=O)[C@H](Cc1ccccc1)NC(=O)c1cnccn1)B(O)O [Bortezomib]
Experimental: as §2

Sirolimus = compound: CO[C@H]1C[C@@H]2CC[C@@H](C)[C@@](O)(O2)C(=O)C(=O)N2CCCC[C@H]2C(=O)O[C@H]([C@H](C)C[C@@H]2CC[C@@H](O)[C@H](OC)C2)CC(=O)[C@H](C)/C=C(\C)[C@@H](O)[C@@H](OC)C(=O)[C@H](C)C[C@H](C)/C=C/C=C/C=C/1C [Sirolimus]
Experimental: as §2

Test System	IC50 (SRB growth assay) (Erlotinib) [nM]	IC50 (SRB growth assay) (Docetaxel) [nM]	IC50 (SRB growth assay) (Paclitaxel) [nM]	IC50 (SRB growth assay) (MI-219) [nM]	IC50 (SRB growth assay) (Tamoxifen) [nM]	IC50 (SRB growth assay) (Sunitinib) [nM]	IC50 (SRB growth assay) (Methotrexate) [nM]	IC50 (SRB growth assay) (Sorafenib) [nM]	IC50 (SRB growth assay) (Vandetanib) [nM]	IC50 (SRB growth assay) (Gefitinib) [nM]	IC50 (SRB growth assay) (Nutlin-3) [nM]	IC50 (SRB growth assay) (Doxorubicin) [nM]	IC50 (SRB growth assay) (Lapatinib) [nM]	IC50 (SRB growth assay) (Panobinostat) [nM]	IC50 (SRB growth assay) (Brivanib) [nM]	IC50 (SRB growth assay) (Dasatinib) [nM]	IC50 (SRB growth assay) (Quisinostat) [nM]	IC50 (SRB growth assay) (Tipifarnib) [nM]	IC50 (SRB growth assay) (Cisplatin) [nM]	IC50 (SRB growth assay) (Azacitidine) [nM]	IC50 (SRB growth assay) (Decitabine) [nM]	IC50 (SRB growth assay) (Belinostat) [nM]	IC50 (SRB growth assay) (Vorinostat) [nM]	IC50 (SRB growth assay) (ARQ197) [nM]	IC50 (SRB growth assay) (Mitoxantrone) [nM]	IC50 (SRB growth assay) (5-Fluorouracil) [nM]	IC50 (SRB growth assay) (Serdemetan) [nM]	IC50 (SRB growth assay) (17-AAG) [nM]	IC50 (SRB growth assay) (Bortezomib) [nM]	IC50 (SRB growth assay) (Sirolimus) [nM]
HCC 1954	361	0.37	1.37	> 10000	5420	5340	10.2	5510	894	435	> 10000	11.1	182	9.53	5340	2290	7.36	449	> 10000	807	1650	142	452	205	8.2	2490	1280	26.4	5.29	0.0308
Hs 578T	> 10000	0.796	1.88	> 10000	> 10000	7020	26	6640	5710	> 10000	> 10000	57.7	> 10000	18.5	> 10000	1360	12.7	3930	> 10000	5800	> 10000	543	999	696	16.8	> 10000	2550	49.4	5.74	0.946
MCF 7	> 10000	1.12	1.79	815	5690	4470	13.9	5100	> 10000	> 10000	2010	8.94	4000	12	> 10000	> 10000	5.75	28.6	> 10000	3730	472	419	783	260	14.8	2210	1690	93.4	8.35	58.2
MDA-MB 361	3870	1.41	4.81	> 10000	8840	> 10000	729	5770	4370	4600	> 10000	67	499	8.08	> 10000	6020	3.95	2210	> 10000	> 10000	> 10000	469	723	417	25.9	> 10000	3950	41.4	6.68	0.259
MDA-MB 415	> 10000	0.764	5.81	> 10000	9970	5100	326	5200	4780	> 10000	> 10000	66	> 10000	23.6	> 10000	> 10000	24.1	6780	> 10000	> 10000	> 10000	548	1530	691	31.3	6530	6070	71.8	10.8	0.688
MDA-MB 435 S	> 10000	1.32	2.15	> 10000	> 10000	5440	12.4	6530	6950	> 10000	> 10000	54.8	> 10000	44.5	> 10000	> 10000	25.2	> 10000	> 10000	3760	> 10000	2010	2630	705	35.8	2860	2050	164	12.3	> 2000
MDA-MB 436	1970	0.772	2.3	> 10000	> 10000	2170	27.7	4830	4100	4960	> 10000	5.7	4660	34.6	> 10000	1290	23.5	703	1400	1670	783	637	1890	359	0.781	981	1000	34.9	6.95	3.42
MDA-MB 453	> 10000	0.872	2.14	> 10000	6360	6260	> 10000	4930	5110	> 10000	> 10000	31.9	827	5.73	> 10000	3.93	2.01	2140	> 10000	7190	4170	52.7	368	192	8.79	> 10000	796	3.08	6.37	0.19
MDA-MB 468	1150	0.515	1.56	> 10000	4940	2940	7.54	4530	1990	990	> 10000	9.63	762	14.9	> 10000	> 10000	9.89	77	974	2340	77.7	436	1030	222	4.09	5280	837	745	4.31	2.22
MPE 600	8850	1.15	2.51	2050	> 10000	6560	31	1900	1990	4260	4450	26.6	3080	13.8	> 10000	> 10000	14.8	631	> 10000	548	595	379	1220	859	8.01	1250	2260	104	5.48	1.52
OCUB-M	9580	0.279	0.888	> 10000	> 10000	3520	6.6	3830	2770	> 10000	> 10000	1.98	2200	8.13	> 10000	> 10000	5.92	156	> 10000	1690	3680	133	520	483	1.27	1880	2850	119	3.35	0.132
SKBR 3	3740	0.589	1.68	> 10000	6720	3410	9.97	4790	3490	2630	> 10000	20.4	43.7	5.39	> 10000	> 10000	3.33	279	> 10000	2690	2350	190	499	404	4.74	4770	1080	18.9	5.5	0.587
SUM 44 PE	> 10000	0.414	1.35	> 10000	5200	5020	> 10000	5050	4200	> 10000	> 10000	30.8	4760	9.33	> 10000	> 10000	2.21	3270	> 10000	3440	> 10000	139	564	539	20.7	8640	2880	15.8	9.46	0.222
SUM 52 PE	8810	0.489	1.42	> 10000	6890	1160	23.2	655	711	7870	> 10000	17.7	3210	7.17	1270	2200	1.47	185	6700	2000	2210	183	366	427	7.57	1240	570	35.4	5.23	0.165
